Measured values taken from patent US12195427B2, “MASP-2 inhibitors and methods of use” (priority 2018, dated 2025).

Biological target: MASP-2 CCP2-SP (Homo sapiens (Human), UniProt O00187)
Test: MASP-2 co-crystallization, X-ray crystallography and structure analysis (H-bonds, van der Waals contacts);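 for Ligand-pharmacophore element distance, pharmacophore element C2: distance from averaged pharmacophore element to bound ligand; missing value means element absent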;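 for Ligand-pharmacophore element distance, pharmacophore element C3: distance from averaged pharmacophore element to bound ligand; missing value means element absent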;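 for Ligand-pharmacophore element distance, pharmacophore element C4: distance from averaged pharmacophore element to bound ligand; missing value means element absent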;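 for Ligand-pharmacophore element distance, pharmacophore element C5: distance from averaged pharmacophore element to bound ligand; missing value means element absent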
Set-up: van der Waals contact distance, MASP-2 HIS 483 atom CD2 / van der Waals contact distance, MASP-2 HIS 483 atom NE2 / van der Waals contact distance, SER 654 C to compound atom / van der Waals contact distance, SER 654 O to compound atom / van der Waals contact distance, TRP 655 C to compound atom / van der Waals contact distance, MASP-2 GLY 528 atom CA / van der Waals contact distance TRP 655 atom CZ3 / van der Waals contact distance TRP 655 atom N / van der Waals contact distance TRP 655 atom CE3 / van der Waals contact distance GLY 656 atom C / van der Waals contact distance GLY 656 atom CA / van der Waals contact distance GLY 656 atom O / van der Waals contact distance, MASP-2 TYR 607 atom CD1 / van der Waals contact distance, MASP-2 PRO 606 atom O / d(C3,CA1) / d(CA1,N1)2 / d(H4,O1) / d(H4,O2) / d(O1,O2) / d(CA1,O2) / d(CA6,O1) / d(CA6,O2) / d(CA1,C5) / d(O2,H3) / d(N2,C2) / d(CA5,N2) / d(N2,C4) / d(N2,C6) / d(N2,CA3) / d(N2,O3) / d(O4,H2): unit not given beside the values
Details: for Ligand-pharmacophore element distance, pharmacophore element C2 / Ligand-pharmacophore element distance, pharmacophore element C3 / Ligand-pharmacophore element distance, pharmacophore element C4 / Ligand-pharmacophore element distance, pharmacophore element C5 / Ligand-pharmacophore element distance, pharmacophore element C6 / Ligand-pharmacophore element distance, pharmacophore element C7 / Ligand-pharmacophore element distance, pharmacophore element CA1 / Ligand-pharmacophore element distance, pharmacophore element CA2 / Ligand-pharmacophore element distance, pharmacophore element CA3 / Ligand-pharmacophore element distance, pharmacophore element CA4 / Ligand-pharmacophore element distance, pharmacophore element CA5 / Ligand-pharmacophore element distance, pharmacophore element CA6: Table A4-1
Description: This example illustrates the preparation of recombinant MASP-2 protein, based on UniProt O00187, human mannan-binding lectin serine protease 2. Expression constructs for human MASP-2 CCP2-SP and CCP2-SP-6HIS were generated for recombinant expression in E. coli cells.
Typically, crystallization hits were obtained by screening against […] 96-well crystallization reagent kits (GRAS6, GRAS2, Hampton Research; MORPHEUS, Molecular Dimensions; Wizard 1&2 Cryo, Rigaku Reagents) and crystal growth was inspected by optical microscopy. Crystals were used directly or further optimized for X-ray diffraction. Crystals were captured with cryogenic loops and dipped into liquid nitrogen directly or cryoprotected with a 20% glycerol in crystallization formulation before flash-cooling in liquid nitrogen.
Thereafter crystals are transferred once or twice for soaking within the crystallization solution containing the MASP-2 inhibitor.
Crystals were diffracted with synchrotron X-rays of […] and X-ray diffraction datasets were collected at beamlines SSRL BL9-2, BL14-1, BL12-2 as well as ALS sector 5 using Dectris Pilatus and Eiger detectors. Structures were determined by molecular replacement using portions of the structure 1Q3X as search models and partially refined with Buster 2.10.2 or Refmac 5.8. […] When multiple ligand poses were observed, for instance arising from multiple molecules in the asymmetric unit or refined dual poses within the same molecule, only one pose was selected and analyzed.
LigPlot+ calls these ‘nonbonded contacts’ or ‘hydrophobic contacts’. Despite the name, there are atom pairings that include possible H-bonds. Thus, in some instances, the Table A2 also contains H-bond interactions.

[1] = Table A5-1 pharmacophore: distance between elements, S2/S1 region
[2] = Table A5-2 pharmacophore distance, S3/S4 region
[3] = Table A7-1, between pharmacophore elements of the bound compound
[4] = Table A7-2, between pharmacophore elements of the bound compound

Sequence of MASP-2 CCP2-SP (O00187 445-686): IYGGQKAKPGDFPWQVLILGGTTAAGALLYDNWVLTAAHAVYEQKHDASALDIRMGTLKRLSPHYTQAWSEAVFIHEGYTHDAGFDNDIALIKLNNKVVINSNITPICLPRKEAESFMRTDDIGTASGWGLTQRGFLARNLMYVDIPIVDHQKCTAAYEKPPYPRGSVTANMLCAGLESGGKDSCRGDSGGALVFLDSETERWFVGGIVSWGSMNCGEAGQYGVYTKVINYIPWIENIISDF
Sequence of MASP-2 CCP2-SP (O00187 364-432 partner): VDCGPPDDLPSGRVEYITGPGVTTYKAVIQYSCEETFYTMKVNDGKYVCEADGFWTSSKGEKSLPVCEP

SMILES	Ligand-pharmacophore element distance, pharmacophore element C2	Ligand-pharmacophore element distance, pharmacophore element C3	Ligand-pharmacophore element distance, pharmacophore element C4	Ligand-pharmacophore element distance, pharmacophore element C5	Ligand-pharmacophore element distance, pharmacophore element C6	Ligand-pharmacophore element distance, pharmacophore element C7	Ligand-pharmacophore element distance, pharmacophore element CA1	Ligand-pharmacophore element distance, pharmacophore element CA2	Ligand-pharmacophore element distance, pharmacophore element CA3	Ligand-pharmacophore element distance, pharmacophore element CA4	Ligand-pharmacophore element distance, pharmacophore element CA5	Ligand-pharmacophore element distance, pharmacophore element CA6	d(CA1,O1) [1]	d(CA1,O2) [1]	d(H4,O1) [1]	d(H4,O2) [1]	d(O1,O2) [1]	d(N2,CA2) [2]	d(O2,H3) [2]	d(O2,N2) [2]	also measured
CC(=O)Nc1ccc(CCNC(CCc2ccccc2)C(=O)NC(C)C(=O)NCc2ccc(C(=N)N)cc2)cc1.Cl.Cl (centres unmarked) [1345_2]	0	0	0	0	0	0	0.45	0.89	1.13	0	0	0	4.58	4.16	4.97	4.32	3.32	5.98	5.51	2.87	d(N2,CA3) [2]: 5.15; d(N2,O3) [2]: 8.73; a(CA1, O1, O2) (Table A6-1 pharmacophore angle): 105.43; a(O1, O2, H4) (Table A6-1 pharmacophore angle): 138.87; a(O1, O2, H3) (Table A6-2 pharmacophore angle): 152.27; a(O1, O2, N2) (Table A6-2 pharmacophore angle): 142.63; a(O2, N2, CA2) (Table A6-2 pharmacophore angle): 153.90; a(O2, N2, CA3) (Table A6-2 pharmacophore angle): 151.66; a(O2, N2, O3) (Table A6-2 pharmacophore angle): 162.76; Pharmacophore torsion angle a(H4, O1, O2, H3) [3]: 49.59; Pharmacophore torsion angle a(H4, O1, O2, N2) [3]: 128.64; Pharmacophore torsion angle a(O1, H4, O2, CA1) [3]: −68.67; Pharmacophore torsion angle a(O1, O2, N2, CA2) [4]: 129.85; Pharmacophore torsion angle a(O1, O2, N2, CA3) [4]: −34.52; Pharmacophore torsion angle a(O1, O2, N2, O3) [4]: −20.78
Cc1nc(N)ccc1CNC(=O)[C@H](C)NC(=O)[C@H]1C[C@H](Cc2cccc(Cl)c2)CN1.Cl.Cl [1328_1]	0	0.4	0.76	0	0	0	0.49	0.5	0	0	0	0	4.24	3.54	4.21	3.54	3.13	5.88	4.20	2.79	d(C3,CA1) [1]: 2.85; d(CA1,N1)2 [1]: 1.37; d(N2,C4) [2]: 8.09; d(N2,C4)4 [2]: 8.09; a(C3, CA1, O1) (Table A6-1 pharmacophore angle): 150.62; a(CA1, O1, O2) (Table A6-1 pharmacophore angle): 101.20; a(O1, O2, H4) (Table A6-1 pharmacophore angle): 133.34; a(N1, CA1, O1) b) (Table A6-1 pharmacophore angle, Methyl-amino-pyridine compounds): 175.41; a(O1, O2, H3) (Table A6-2 pharmacophore angle): 150.01; a(O1, O2, N2) (Table A6-2 pharmacophore angle): 145.32; a(O2, N2, C4) (Table A6-2 pharmacophore angle): 161.66; a(O2, N2, C4) 2 (Table A6-2 pharmacophore angle): 114.03; a(O2, N2, CA2) (Table A6-2 pharmacophore angle): 155.25; Pharmacophore torsion angle a(C3, CA1, O1, H4) [3]: 30.10; Pharmacophore torsion angle a(H4, O1, O2, H3) [3]: 55.62; Pharmacophore torsion angle a(H4, O1, O2, N2) [3]: 136.65; Pharmacophore torsion angle a(N1, CA1, O1, H4) [3]: 20.31; Pharmacophore torsion angle a(O1, H4, O2, CA1) [3]: −88.07; Pharmacophore torsion angle a(O1, O2, N2, CA2) [4]: 126.19
